Values quoted from earlier work in article PMC4667793 (Journal of medicinal chemistry, 2015).
Where a name gives a salt, the structure may show the parent alone.

Biological target: MtBPL (Mycobacterium tuberculosis, UniProt I6YFP0)
Settings: binding MtBPL; cited from earlier work

Chain of MtBPL (I6YFP0 whole entry, looked up): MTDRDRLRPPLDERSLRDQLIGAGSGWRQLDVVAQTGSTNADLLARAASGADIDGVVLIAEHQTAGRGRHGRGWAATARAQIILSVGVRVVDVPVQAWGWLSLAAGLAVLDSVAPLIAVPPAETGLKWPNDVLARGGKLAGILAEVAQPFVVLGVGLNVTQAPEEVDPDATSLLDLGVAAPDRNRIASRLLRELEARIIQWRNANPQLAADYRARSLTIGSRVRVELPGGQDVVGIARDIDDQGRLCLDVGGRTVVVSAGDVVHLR

For Nc1ncnc2c1ncn2[C@@H]1O[C@H](CNS(=O)(=O)NC(=O)CCCC[C@@H]2SC[C@@H]3NC(=O)N[C@@H]32)[C@@H](O)[C@H]1O [Compound 14, 5′-[N-(D-biotinoyl)sulfamoyl]amino-5′-deoxyadenosine triethylammonium salt], which “times more tightly bound than biotin” value is on record?
The value was “more than 1,700 times”.
